Reference: the supplement of paper PMC10307832

Assays:
Test in all cases: relative viability (nuclei count vs DMSO), 5 days (fraction); higher = more cells survive
NCI-H596 = test system: NCI-H596
Procedure, shortened: (§1)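 Lung cancer cell lines in 1536-well plates got either a single drug or a fixed anchor-drug dose together with five library-drug doses (not always all listed) in √10 steps, by pin tool, on the day after seeding. Nuclei were counted after 5 days, and relative viability is the treated-to-vehicle ratio of nuclei counts. Values are medians of duplicate plates.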

NCI-H1993 = test system: NCI-H1993
Procedure, shortened: as §1

HCC-827 = test system: HCC-827
Procedure, shortened: as §1

LU99A = test system: LU99A
Procedure, shortened: as §1

NCI-H1944 = test system: NCI-H1944
Procedure, shortened: as §1

SK-LU-1 = test system: SK-LU-1
Procedure, shortened: as §1

LC-2-ad = test system: LC-2-ad
Procedure, shortened: as §1

NCI-H3122 = test system: NCI-H3122
Procedure, shortened: as §1

NCI-H1915 = test system: NCI-H1915
Procedure, shortened: as §1

HCC-15 = test system: HCC-15
Procedure, shortened: as §1

RERF-LC-KJ = test system: RERF-LC-KJ
Procedure, shortened: as §1

NCI-H1755 = test system: NCI-H1755
Procedure, shortened: as §1

NCI-H522 = test system: NCI-H522
Procedure, shortened: as §1

LCLC-97TM1 = test system: LCLC-97TM1
Procedure, shortened: as §1

COR-L 105 = test system: COR-L 105
Procedure, shortened: as §1

EKVX = test system: EKVX
Procedure, shortened: as §1

SK-MES-1 = test system: SK-MES-1
Procedure, shortened: as §1

BEN = test system: BEN
Procedure, shortened: as §1

HCC-366 = test system: HCC-366
Procedure, shortened: as §1

NCI-H2342 = test system: NCI-H2342
Procedure, shortened: as §1

COR-L23 = test system: COR-L23
Procedure, shortened: as §1

PC-3 [JPC-3] = test system: PC-3 [JPC-3]
Procedure, shortened: as §1

Work on `COCC1(CO)C(=O)C2CCN1CC2` (stereo unspecified) [PRIMA-1MET] + CC(=O)Nc1cccc(-n2c(=O)n(C3CC3)c(=O)c3c(Nc4ccc(I)cc4F)n(C)c(=O)c(C)c32)c1 [Trametinib] (partner 0.02 µM) yielded a relative viability (NCI-H596; first compound 0.2 µM) of 0.888, a relative viability (NCI-H596; first compound 0.6325 µM) of 0.718 and a relative viability (NCI-H596; first compound 2 µM) of 0.66. It also gave a relative viability (NCI-H596; first compound 6.325 µM) of 0.837, a relative viability (NCI-H596; first compound 20 µM) of 0.119 and a relative viability (NCI-H1993; first compound 0.2 µM) of 0.619. It also gave a relative viability (NCI-H1993; first compound 2 µM) of 0.588, a relative viability (NCI-H1993; first compound 6.325 µM) of 0.534 and a relative viability (NCI-H1993; first compound 20 µM) of 0.514. It also gave a relative viability (HCC-827; first compound 0.2 µM) of 0.443, a relative viability (HCC-827; first compound 0.6325 µM) of 0.523 and a relative viability (HCC-827; first compound 2 µM) of 0.474. It also gave a relative viability (HCC-827; first compound 6.325 µM) of 0.461, a relative viability (HCC-827; first compound 20 µM) of 0.481 and a relative viability (LU99A; first compound 0.2 µM) of 0.314. The relative viability (LU99A; first compound 0.6325 µM) was 0.573, the relative viability (LU99A; first compound 2 µM) was 0.502 and the relative viability (LU99A; first compound 6.325 µM) was 0.261. For the same molecule, the relative viability (LU99A; first compound 20 µM) was 0.21, the relative viability (NCI-H1944; first compound 0.2 µM) was 0.366 and the relative viability (NCI-H1944; first compound 0.6325 µM) was 0.349. It also gave a relative viability (NCI-H1944; first compound 2 µM) of 0.407, a relative viability (NCI-H1944; first compound 6.325 µM) of 0.387 and a relative viability (NCI-H1944; first compound 20 µM) of 0.425. For the same molecule, the relative viability (SK-LU-1; first compound 0.2 µM) was 0.308, the relative viability (SK-LU-1; first compound 0.6325 µM) was 0.488 and the relative viability (SK-LU-1; first compound 2 µM) was 0.35. For the same molecule, the relative viability (SK-LU-1; first compound 6.325 µM) was 0.382, the relative viability (SK-LU-1; first compound 20 µM) was 0.528 and the relative viability (LC-2-ad; first compound 0.2 µM) was 0.82. It also gave a relative viability (LC-2-ad; first compound 0.6325 µM) of 0.914, a relative viability (LC-2-ad; first compound 2 µM) of 0.924 and a relative viability (LC-2-ad; first compound 6.325 µM) of 0.878. The relative viability (LC-2-ad; first compound 20 µM) was 0.905, the relative viability (NCI-H3122; first compound 0.2 µM) was 0.148 and the relative viability (NCI-H3122; first compound 0.6325 µM) was 0.237. The relative viability (NCI-H3122; first compound 2 µM) was 0.24, the relative viability (NCI-H3122; first compound 6.325 µM) was 0.17 and the relative viability (NCI-H3122; first compound 20 µM) was 0.191. It also gave a relative viability (NCI-H1915; first compound 0.2 µM) of 0.166, a relative viability (NCI-H1915; first compound 0.6325 µM) of 0.246 and a relative viability (NCI-H1915; first compound 2 µM) of 0.248. The relative viability (NCI-H1915; first compound 6.325 µM) was 0.218, the relative viability (NCI-H1915; first compound 20 µM) was 0.31 and the relative viability (HCC-15; first compound 0.2 µM) was 0.37. It also gave a relative viability (HCC-15; first compound 0.6325 µM) of 0.346, a relative viability (HCC-15; first compound 2 µM) of 0.37 and a relative viability (HCC-15; first compound 6.325 µM) of 0.328. It also gave a relative viability (HCC-15; first compound 20 µM) of 0.31, a relative viability (RERF-LC-KJ; first compound 0.2 µM) of 0.858 and a relative viability (RERF-LC-KJ; first compound 0.6325 µM) of 0.849. The relative viability (RERF-LC-KJ; first compound 2 µM) was 0.821, the relative viability (RERF-LC-KJ; first compound 6.325 µM) was 0.951 and the relative viability (RERF-LC-KJ; first compound 20 µM) was 0.826. It also gave a relative viability (NCI-H1755; first compound 0.2 µM) of 0.676, a relative viability (NCI-H1755; first compound 0.6325 µM) of 0.729 and a relative viability (NCI-H1755; first compound 2 µM) of 0.644. It also gave a relative viability (NCI-H1755; first compound 6.325 µM) of 0.745, a relative viability (NCI-H1755; first compound 20 µM) of 0.762 and a relative viability (NCI-H522; first compound 0.2 µM) of 0.655. It also gave a relative viability (NCI-H522; first compound 0.6325 µM) of 0.673, a relative viability (NCI-H522; first compound 2 µM) of 0.528 and a relative viability (NCI-H522; first compound 6.325 µM) of 0.717. For the same molecule, the relative viability (NCI-H522; first compound 20 µM) was 0.121, the relative viability (LCLC-97TM1; first compound 0.2 µM) was 0.133 and the relative viability (LCLC-97TM1; first compound 0.6325 µM) was 0.163. The relative viability (LCLC-97TM1; first compound 2 µM) was 0.179, the relative viability (LCLC-97TM1; first compound 6.325 µM) was 0.151 and the relative viability (LCLC-97TM1; first compound 20 µM) was 0.197. The relative viability (COR-L 105; first compound 0.2 µM) was 0.464, the relative viability (COR-L 105; first compound 0.6325 µM) was 0.421 and the relative viability (COR-L 105; first compound 2 µM) was 0.378. The relative viability (COR-L 105; first compound 6.325 µM) was 0.438, the relative viability (COR-L 105; first compound 20 µM) was 0.108 and the relative viability (EKVX; first compound 0.2 µM) was 0.344. For the same molecule, the relative viability (EKVX; first compound 2 µM) was 0.283, the relative viability (EKVX; first compound 6.325 µM) was 0.233 and the relative viability (EKVX; first compound 20 µM) was 0.243. For the same molecule, the relative viability (SK-MES-1; first compound 0.2 µM) was 0.609, the relative viability (SK-MES-1; first compound 0.6325 µM) was 0.538 and the relative viability (SK-MES-1; first compound 2 µM) was 0.549. The relative viability (SK-MES-1; first compound 6.325 µM) was 0.624, the relative viability (SK-MES-1; first compound 20 µM) was 0.592 and the relative viability (BEN; first compound 0.2 µM) was 1.12. For the same molecule, the relative viability (BEN; first compound 0.6325 µM) was 0.926, the relative viability (BEN; first compound 6.325 µM) was 1.03 and the relative viability (BEN; first compound 20 µM) was 1.07. The relative viability (HCC-366; first compound 0.2 µM) was 0.288, the relative viability (HCC-366; first compound 0.6325 µM) was 0.289 and the relative viability (HCC-366; first compound 2 µM) was 0.263. For the same molecule, the relative viability (HCC-366; first compound 6.325 µM) was 0.431, the relative viability (HCC-366; first compound 20 µM) was 0.0205 and the relative viability (NCI-H2342; first compound 0.2 µM) was 0.77. It also gave a relative viability (NCI-H2342; first compound 0.6325 µM) of 1.06, a relative viability (NCI-H2342; first compound 6.325 µM) of 0.755 and a relative viability (NCI-H2342; first compound 20 µM) of 0.67. The relative viability (COR-L23; first compound 0.2 µM) was 0.247, the relative viability (COR-L23; first compound 0.6325 µM) was 0.532 and the relative viability (COR-L23; first compound 2 µM) was 0.495. The relative viability (COR-L23; first compound 6.325 µM) was 0.357, the relative viability (COR-L23; first compound 20 µM) was 0.0237 and the relative viability (PC-3 [JPC-3]; first compound 0.2 µM) was 0.757. For the same molecule, the relative viability (PC-3 [JPC-3]; first compound 0.6325 µM) was 0.667, the relative viability (PC-3 [JPC-3]; first compound 2 µM) was 0.733 and the relative viability (PC-3 [JPC-3]; first compound 6.325 µM) was 0.696. For the same molecule, the relative viability (PC-3 [JPC-3]; first compound 20 µM) was 0.614.
